How the values were obtained:
[1] = system: PBMC and HUVEC + LPS (TLR4 ligand); experiment: BioMAP LPS system; type: cell-based, human; settings: annotated relative to vehicle controls
From the text: (§1) Cell types and stimuli used in each system are as follows: 3C system [HUVEC + (IL-1β, TNFα and IFNy)], 4H system [HUVEC + (IL-4 and histamine)], LPS system [PBMC and HUVEC + LPS (TLR4 ligand)], SAg system [PBMC and HUVEC + TCR ligands], BT system [CD19+ B cells and PBMC + (α-IgM and TCR ligands)], BF4T system [bronchial epithelial cells and HDFn + (TNFα and IL-4)], BE3C system [bronchial epithelial cells + (IL-1β, TNFα and IFNy)], CASM3C system [coronary artery smooth muscle cells + (IL-1 β, TNFα and IFNy)], HDF3CGF system [HDFn + (IL-1β, TNFα, IFNy, EGF, bFGF and PDGF-BB)], KF3CT system [keratinocytes and HDFn + (IL-1β, TNFα, IFNy and TGFβ)], MyoF system [differentiated lung myofibroblasts + (TNFα and TGFβ)] and Mphg system [HUVEC and M1 macrophages + Zymosan (TLR2 ligand)].
(§2) Systems are derived from either single cell types or co-culture systems. Adherent cell types are cultured in 96 or 384-well plates until confluence, followed by the addition of PBMC (SAg and LPS systems). […] Soluble factors from supernatants are quantified using either HTRF® detection, bead-based multiplex immunoassay or capture ELISA. Overt adverse effects of test agents on cell proliferation and viability (cytotoxicity) are detected by sulforhodamine B (SRB) staining, for adherent cells, and alamarBlue® reduction for cells in suspension. […]

ALS patients = experiment: ALSAQ-40 sub-scores in ALS patients, dextran sulfate 2 mg/kg s.c. weekly for ten weeks (Example 14); type: in vivo, human; settings: after 10 weeks of treatment
Protocol: Dextran sulfate (ILB®, Tikomed AB, Viken, Sweden, WO 2016/076780) was administered at 2 mg/kg by […] subcutaneous injection once a week for ten weeks to 8 human patients suffering from ALS.
ALSAQ-40 was assessed pre-treatment and weekly thereafter for the 10 treatment weeks and for the visits at the follow-up period.

[2] = system: HUVEC + (IL-4 and histamine); experiment: BioMAP 4H system; type: cell-based, human; settings: annotated relative to vehicle controls
From the text: as §1, §2

[3] = system: plasma hepatocyte growth factor (HGF); experiment: Plasma HGF (ELISA) in ALS patients after s.c. LMW-DS 1 mg/kg weekly (Example 2); type: in vivo, human; settings: 1 mg/kg s.c.
Protocol: This was a single-center, open single-arm study where the safety, tolerability and efficacy of subcutaneous (s.c.) administered LMW-DS was evaluated in patients with ALS. There were 10 planned visits to the clinic: 1 screening visit divided in 2 parts (Visit 1a and Visit 1b), 5 investigational medicinal product (IMP) administration visits (Visit 2 to Visit 6) and 3 follow-up visits (Visit 7 to Visit 9). Each individual patient’s study participation was planned to be approximately 4 months, including the screening and follow-up visits.
The active pharmaceutical ingredient of the IMP was a low molecular weight dextran sulfate (LMW-DS), (ILB®, Tikomed AB, Viken, Sweden, WO 2016/076780). The drug was used as a solution for s.c. injection and consisted of 20 mg/mL LMW-DS and 9 mg/mL NaCl. Each glass vial contained 10 mL. The dose administered depended on the patient’s body weight at Visit 2, prior to the first LMW-DS administration. LMW-DS was injected s.c. on alternating sides of the abdomen, thigh or the buttock (in that order of priority). Five injections of 1 mg/kg, with 1 week dosing interval, were administered. Changes in immunoreactive HGF were measured by commercial ELISA (R&D HGF ELISA) from blood samples taken at each visit.

[4] = system: HDFn + (IL-1β, TNFα, IFNy, EGF, bFGF and PDGF-BB); experiment: BioMAP HDF3CGF system; type: cell-based, human; settings: annotated relative to vehicle controls
From the text: as §1, §2

[5] = system: coronary artery smooth muscle cells + (IL-1 β, TNFα and IFNy); experiment: BioMAP CASM3C system; type: cell-based, human; settings: annotated relative to vehicle controls
From the text: as §1, §2

## sodium salt of dextran sulfate [LMW-DS]
[1]
  Decreased biomarker activity: sTNFα
  Increased biomarker activity: IL-8
ALS patients
  ALSAQ-40 ADL sub-score: 44.4 ± 24.7
  ALSAQ-40 PM sub-score: 22.7 ± 20.2
  decline of ALSAQ-40 ADL sub-score: 18.6%
  decline of ALSAQ-40 PM sub-score: 16%
[2]
  Increased biomarker activity: uPAR
[3]
  time of maximum peak of plasma HGF after LMW-DS administration: about 2 hr
[4]
  Decreased biomarker activity: VCAM-1, IP-10, ITAC, MIG, M-CSF
  Increased biomarker activity: EGFR, MMP-1, PAI-1
[5]
  Decreased biomarker activity: VCAM-1, MIG
